Experimental findings from ChEMBL document CHEMBL1147909, “Methylenedisalicylic acid derivatives: new PTP1B inhibitors that confer resistance to diet-induced obesity” (Bioorg Med Chem Lett, 2007) are described below.

Assay [1] deals with T1, Tyrosine-protein phosphatase non-receptor type 1 (Homo sapiens, UniProt P18031).
T1 sequence (P18031 whole entry): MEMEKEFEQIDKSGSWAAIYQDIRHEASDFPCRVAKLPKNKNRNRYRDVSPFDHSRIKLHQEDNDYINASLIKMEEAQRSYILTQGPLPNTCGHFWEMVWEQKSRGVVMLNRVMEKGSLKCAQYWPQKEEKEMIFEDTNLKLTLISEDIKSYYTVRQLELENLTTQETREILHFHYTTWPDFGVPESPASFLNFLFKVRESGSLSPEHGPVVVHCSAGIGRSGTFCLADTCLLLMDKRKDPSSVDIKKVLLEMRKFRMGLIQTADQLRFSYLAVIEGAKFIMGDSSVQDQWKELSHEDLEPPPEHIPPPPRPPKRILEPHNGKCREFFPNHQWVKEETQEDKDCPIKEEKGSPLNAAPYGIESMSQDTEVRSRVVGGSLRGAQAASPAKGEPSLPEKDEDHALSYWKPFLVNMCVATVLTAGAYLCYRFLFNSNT
The assay can be described thus: Inhibition of PTP1B after 10 mins.

A short description of assay [2]: Inhibition of LAR Tyrosine phosphatase D1. Also noted: species or system Homo sapiens.
The target in assay [3] is T2, Tyrosine-protein phosphatase non-receptor type 2 (Homo sapiens, UniProt P17706).
T2 sequence (P17706 whole entry): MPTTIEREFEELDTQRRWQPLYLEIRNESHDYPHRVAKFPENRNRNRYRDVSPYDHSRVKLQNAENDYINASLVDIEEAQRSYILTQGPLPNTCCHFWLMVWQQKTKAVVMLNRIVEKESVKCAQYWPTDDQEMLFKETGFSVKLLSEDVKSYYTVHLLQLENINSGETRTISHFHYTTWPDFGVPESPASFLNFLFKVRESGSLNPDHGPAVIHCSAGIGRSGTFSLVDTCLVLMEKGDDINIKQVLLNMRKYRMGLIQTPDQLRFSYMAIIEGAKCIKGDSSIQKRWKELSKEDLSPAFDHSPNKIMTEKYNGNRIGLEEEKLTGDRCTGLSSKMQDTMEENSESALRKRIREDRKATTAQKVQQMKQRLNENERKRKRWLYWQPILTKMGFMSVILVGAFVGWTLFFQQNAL
The assay can be described thus: Inhibition of TC-PTP.

The target of assay [4] is T3, Tyrosine-protein phosphatase 1 (Saccharomyces cerevisiae S288c, UniProt P25044).
T3 sequence (P25044 whole entry): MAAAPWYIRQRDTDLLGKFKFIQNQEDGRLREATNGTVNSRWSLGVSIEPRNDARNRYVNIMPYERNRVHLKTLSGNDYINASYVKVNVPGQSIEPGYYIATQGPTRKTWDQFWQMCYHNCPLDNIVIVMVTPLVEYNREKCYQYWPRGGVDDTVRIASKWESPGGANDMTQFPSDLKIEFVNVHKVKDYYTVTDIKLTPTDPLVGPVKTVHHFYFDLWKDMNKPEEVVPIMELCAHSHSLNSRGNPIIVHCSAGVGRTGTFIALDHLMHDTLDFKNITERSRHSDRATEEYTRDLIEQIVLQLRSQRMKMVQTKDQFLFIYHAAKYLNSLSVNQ
In words: Inhibition of yeast PTP1.

The target of assay [5] is Tyrosine-protein phosphatase non-receptor type 6 (Homo sapiens, UniProt P29350). In words: Inhibition of SHP-1 catalytic domain.
The species named for the next assay is Homo sapiens. In words: Selectivity for PTP1B over TC-PTP.
Assay [6] deals with Mus musculus. The assay can be described thus: Effect on high fat diet induced obesity in C57BL/6J Jms Slc mouse assessed as body weight at 5 g/kg. It counts as functional.
Assay [7] concerns Mus musculus. In words: Effect on high fat diet induced obesity in C57BL/6J Jms Slc mouse assessed as liver weight at 5 g/kg. It is filed as functional.
The subject of assay [8] is Mus musculus. In words: Effect on high fat diet induced obesity in C57BL/6J Jms Slc mouse assessed as epididymal adipose tissue weight at 5 g/kg. It is filed as functional.
Assay [9] concerns Mus musculus. The assay can be described thus: Effect on high fat diet induced obesity in C57BL/6J Jms Slc mouse assessed as retroperitoneal adipose tissue weight at 5 g/kg. It counts as functional.

In general, IC50 refers to the midpoint of a concentration-inhibition curve. A low value points to greater potency. For orientation: Ki means a measure of affinity in units of concentration, obtained from inhibition or displacement. Lower therefore signals a stronger hold on the target.

Tyrosine-protein phosphatase non-receptor type 6, sequence (P29350 whole entry, the tested form may be a part): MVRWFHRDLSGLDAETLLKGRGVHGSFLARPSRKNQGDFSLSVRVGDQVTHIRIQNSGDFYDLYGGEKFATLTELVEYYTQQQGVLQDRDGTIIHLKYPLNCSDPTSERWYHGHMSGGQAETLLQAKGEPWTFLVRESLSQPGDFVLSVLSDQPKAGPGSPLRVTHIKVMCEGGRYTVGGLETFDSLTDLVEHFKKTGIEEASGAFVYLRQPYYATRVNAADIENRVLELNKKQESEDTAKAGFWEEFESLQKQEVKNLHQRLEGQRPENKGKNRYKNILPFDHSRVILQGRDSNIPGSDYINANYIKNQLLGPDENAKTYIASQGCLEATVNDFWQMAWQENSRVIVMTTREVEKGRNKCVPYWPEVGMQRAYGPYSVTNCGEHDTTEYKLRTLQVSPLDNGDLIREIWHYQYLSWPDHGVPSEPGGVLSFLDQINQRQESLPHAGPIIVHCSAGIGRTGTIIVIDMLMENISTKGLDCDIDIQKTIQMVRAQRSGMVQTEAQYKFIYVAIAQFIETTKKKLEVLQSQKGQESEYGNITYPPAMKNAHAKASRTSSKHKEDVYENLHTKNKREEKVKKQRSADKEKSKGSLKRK

With `COc1cc(Cc2cc(OC)c(O)c(C(=O)O)c2)cc(C(=O)O)c1O`, in assay [1], the IC50 was above 1000 µM.

Regarding `O=C(O)c1cc(Cc2cc(C(=O)O)c(O)c(-c3ccccc3)c2)cc(-c2ccccc2)c1O`, the IC50 in [2] was above 2000 µM; in assay [1] it was 20 µM; in [3], 291 µM; in assay [4], 234 µM; in [5] it was 51 µM. In addition, the Ki in assay [1] is 9.4 µM; in assay [3], 64 µM; in assay [5], 17 µM. In the assay listed under Homo sapiens, the Selectivity ratio is above 10. Further, the Activity in the assay on Mus musculus [6] is recorded as 29.2 g; in the assay on Mus musculus [7], 1.03 g; in the assay on Mus musculus [8] it was 0.86 g; with Mus musculus [9], 0.26 g.

As for `O=C(O)c1cc(Cc2cc(C(=O)O)c(O)c(-c3ccco3)c2)cc(-c2ccco2)c1O`, the IC50 in assay [1] was 39 µM.

Regarding `O=C(O)c1cc(Cc2cc(Cc3ccccc3)c(O)c(C(=O)O)c2)cc(Cc2ccccc2)c1O`, the IC50 was above 2000 µM in [2]; 15 µM in [1]; 146 µM in assay [3]; 103 µM in [4]; 32 µM in assay [5]. The figures for the Ki in assay [1], in assay [3] and in [5] were 6.3 µM, 25 µM and 14 µM, respectively. In addition, in the assay listed under Homo sapiens, the Selectivity ratio is above 10.

Turning to `O=C(O)c1cc(Cc2cc(Cl)c(O)c(C(=O)O)c2)cc(Cl)c1O`, inhibition in [1] was half-maximal at 242 µM (IC50).

Take `Cc1cc(Cc2cc(C)c(O)c(C(=O)O)c2)cc(C(=O)O)c1O`: the IC50 in assay [1] is above 1000 µM.

In [1], `O=C(O)C(=O)Nc1sc2c(c1C(=O)O)CCNC2` gave an IC50 of 500 µM and a Ki of 11.5 µM.

With `O=C(O)c1cc(Cc2cc(Br)c(O)c(C(=O)O)c2)cc(Br)c1O`, 78 µM corresponded to half-maximal inhibition in assay [1] (IC50).
